Assay results as given in US20060178382A1, “Chinazoline derivatives as aurora kinase inhibitors” (AstraZeneca AB, priority 2003, published 2006).

What was measured:
[1] = biological target: T1, Aurora-A kinase (Homo sapiens, UniProt O14965); assay: In vitro Aurora-A kinase inhibition test; format: biochemical
T1 construct: 6 histidine tag with spacer region and rTEV protease cleavage site (pFastBac HTc) (N); made in house; host or cells: Spodoptera frugiperda Sf21 insect cells (baculovirus)
T1 sequence (O14965 1-403): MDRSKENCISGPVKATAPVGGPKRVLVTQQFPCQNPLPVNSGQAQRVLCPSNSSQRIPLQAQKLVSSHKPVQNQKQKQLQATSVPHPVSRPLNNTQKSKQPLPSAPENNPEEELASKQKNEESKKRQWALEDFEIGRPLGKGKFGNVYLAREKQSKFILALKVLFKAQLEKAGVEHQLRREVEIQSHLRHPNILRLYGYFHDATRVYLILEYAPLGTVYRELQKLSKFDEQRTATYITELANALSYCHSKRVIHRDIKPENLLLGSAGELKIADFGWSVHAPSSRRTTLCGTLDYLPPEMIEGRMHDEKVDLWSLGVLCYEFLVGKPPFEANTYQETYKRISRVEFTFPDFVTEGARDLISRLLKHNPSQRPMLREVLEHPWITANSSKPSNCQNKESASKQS

[2] = biological target: T2, Aurora-B kinase (Homo sapiens, UniProt Q96GD4); assay: In vitro Aurora-B kinase inhibition test; format: biochemical; details: recombinant Aurora-B, [γ33P]ATP, peptide substrate, 60 minutes room temperature; read-out: concentration giving 50% inhibition of enzyme activity
T2 construct: 6-histidine tag; made in house; host or cells: Spodoptera frugiperda Sf21 insect cells (baculovirus)
T2 sequence (Q96GD4 whole entry): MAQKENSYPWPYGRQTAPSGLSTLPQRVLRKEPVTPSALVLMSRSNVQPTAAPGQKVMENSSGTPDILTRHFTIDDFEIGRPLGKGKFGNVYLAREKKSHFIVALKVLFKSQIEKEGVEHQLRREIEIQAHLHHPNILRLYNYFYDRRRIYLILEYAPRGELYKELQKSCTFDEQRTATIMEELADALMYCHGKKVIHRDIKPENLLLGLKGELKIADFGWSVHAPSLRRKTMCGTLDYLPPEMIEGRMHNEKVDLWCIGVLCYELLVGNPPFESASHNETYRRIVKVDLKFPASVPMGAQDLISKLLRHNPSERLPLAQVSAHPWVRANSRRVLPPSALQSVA
Text: (b) In Vitro Aurora-B Kinase Inhibition Test
This assay determines the ability of a test compound to inhibit serine-threonine kinase activity. DNA encoding Aurora-B may be obtained by total gene synthesis or by cloning. This DNA may then be expressed in a suitable expression system to obtain polypeptide with serine-threonine kinase activity. In the case of Aurora-B, the coding sequence was isolated from cDNA by polymerase chain reaction (PCR) and cloned into the pFastBac system in a manner similar to that described above for Aurora-A (i.e. to direct expression of a 6-histidine tagged Aurora-B protein).
For the large scale expression of Aurora-B kinase activity, Sf21 insect cells were grown at 28° C. in TC100 medium supplemented with 10% foetal calf serum (Viralex) and 0.2% F68 Pluronic (Sigma) on a Wheaton roller rig at 3 r.p.m. When the cell density reached 1.2×10^6 cells ml^−1 they were infected with plaque-pure Aurora-B recombinant virus at a multiplicity of infection of 1 and harvested 48 hours later. All subsequent purification steps were performed at 4° C. […]

Structure (SMILES)	IC50 [1] [nM]	IC50 [2] [nM]
COc1cc2c(Nc3cn(CC(=O)Nc4cccc(F)c4)nn3)ncnc2cc1OCCCCl [Compound 1, 2-(4-{[7-(3-chloropropoxy)-6-methoxyguinazolin-4-yl]amino}-1H-1,2,3-triazol-1-yl)-N-(3-fluorophenyl)acetamide]	900	100
CCCN(CCO)CCCOc1cc2ncnc(Nc3cn(CC(=O)Nc4cccc(F)c4)nn3)c2cc1OC [Compound 4, N-(3-fluorophenyl)-2-{4-[(7-{3-[(2-hydroxyethyl)(propyl)amino]propoxy}-6-methoxyquinazolin-4-yl)amino]-1H-1,2,3-triazol-1-yl}acetamide]	500	100
